# Read-outs that look alike come from different tables or passages of the source.
# Tests used:
# [1] = physchem; format: physicochemical
# From the text: The assays would allow a formation of isopilocarpine or isopilocarpic acid of 1% to be detected.
# [2] = Apparent partition coefficient 1-octanol/phosphate buffer pH 7.4; format: physicochemical; details: for log P: pH 7.4
# [3] = pKa, solubility and other physicochemical properties; details: in words
# [4] = system: eyes of the rabbits; assay: Ophthalmic pupillary diameter or miosis study; format: in vivo, male albino rabbits; details: for duration of miotic effect compared with pilocarpine / overall miotic effect compared with pilocarpine: 25 μl topical, pH 4.5, FIG. 3, in words; for duration of miotic activity of the di-esters: FIG. 5, 0.5% pilocarpine nitrate equivalent
# Description: Twenty-five microliter volumes of each solution were administered by topical ophthalmic instillation to male albino rabbits, and pupillary diameter changes or miotic activities in the eyes of the rabbits were recorded as a function of time, and were compared. A detailed description of the procedure for the miosis study is given in Mitra & Mikkelson (1982) and references cited therein. […] Thus, the miotic activity observed after administration of a solution of O-benzoyl pilocarpic acid 4-methylbenzyl ester lasted for 4.5 hours as shown in FIG. 4. The equivalent concentrations and pH were the same as in the above experiment.
# The compounds are: 4-methylbenzyl pilocarpic acid ester, O-benzoyl pilocarpic acid 4-methylbenzyl ester, and O-acetyl pilocarpic acid 4-methylbenzyl ester. In each of these three derivatives the R1 -substituent is the 4-methylbenzyloxy group. […] Duration of the activity of the di-esters is seen to be approximately 4.5 hours.
# In FIG. 6 the compounds are the O-benzoyl 4-chlorobenzyl, the O-phenylacetyl benzyl, and the O-3-chlorobenzoyl benzyl pilocarpic acid esters. In FIG. 7 the compounds are the O-benzoyl benzyl, the O-butyryl 4-methylbenzyl and the O-nicotionyl benzyl pilocarpic acid esters. […] Again, the extended duration is apparent. Thus, even though the dosage level is less than in the previous experiments, the miotic effect is apparent for up to 4.5 hours after administration.
# [5] = Degradation of O-acyl pilocarpic acid esters and formation of pilocarpine in 75% human plasma; format: in vitro ADME; details: for half-life: 75% plasma
# From the text: ^b In 75% human plasma (pH 7.4) the 4methylbenzyl ester of pilocarpic
# O--acyl esters as determined by HPLC.
# [6] = Hydrolysis/stability of O-acyl pilocarpic acid esters in plasma-free buffer (specific base catalysis); format: physicochemical; details: for kOH (catalytic rate constant, specific base-catalyzed hydrolysis): 37° C., based on hydroxide ion activity; for half-life: buffer
# Description: ^c The hydrolysis is specific basecatalyzed and the data shown were
# obtained by extrapolating experimental rate constants at pH 10-12 to pH
# 7.4. At 20° C. the t0.5 values were 4.5 and 1.4 years, […]
# [7] = Shelf-life / stability of aqueous solutions; format: physicochemical
# Description: At such pH values the stability is much increased as compared with that at neutral and basic pH values. […] At these pH values solutions of the compound were predicted to have shelf-lives in excess of 8 years at 25° C. and 20 years at 20° C. as determined on the basis of temperature-accelerated kinetic stability studies.
# [8] = octanol/phosphate buffer, pH 7.4, Partition coefficients (P)
# [9] = 0.5% pilocarpine nitrate equivalent
# [10] = 75% human plasma (pH 7.4) at 37° C., in words
# [11] = 75% human plasma (pH 7.4) at 37° C., read-out: half-lives of degradation in 75% human plasma
# [12] = pH 7.4, 20° C., hydrolysis in buffer pH 7.4, extrapolated (Table 2 footnote c), read-out: t0.5 values at 20° C. (converted)
# [13] = pH 7.4, 37° C., extrapolated from rate constants at pH 10-12 to pH 7.4, read-out: t0.5 of hydrolysis to pilocarpic acid 4-methylbenzyl ester, pH 7.4 buffer (converted)
# [14] = octanol/buffer, pH 7.4, di-esters (Table 3), read-out: log P octanol/buffer pH 7.4
# [15] = octanol/phosphate buffer, pH 7.4, octanol / 0.05 M phosphate buffer pH 7.40, O-acyl derivatives of pilocarpic acid 4-methylbenzyl ester (Table 2), read-out: Partition coefficients (P) (converted)
# [16] = human, pH 7.4, 37° C., di-esters (Table 3), read-out: t0.5 human plasma (75%)
# [17] = 25 μl of 0.25% (pilocarpine nitrate equivalent), FIGS. 6 and 7
smiles,measurement,setting,value
"CC[C@H](C(=O)OCc1ccccc1)[C@H](CO)Cc1cncn1C [Example 3, Pilocarpic Acid Benzyl Ester]",half-life,"[1]; buffer, pH 7.4",0.833 h
same,logD,[2]; [8],1.82
same,hygroscopicity,[3],hygroscopic
same,duration of miotic effect compared with pilocarpine,[4]; [9],most significantly and dramatically longer
same,overall miotic effect compared with pilocarpine,[4]; [9],significantly greater in their overall effect
"CC[C@H](C(=O)OC(C)c1ccccc1)[C@H](CO)Cc1cncn1C (some centres unmarked) [Example 13, Pilocarpic Acid 1-Phenylethyl Ester]",log P,[2]; octanol/phosphate buffer,2.08
same,logD,[2]; [8],2.08
"CC[C@H](C(=O)OCc1ccc(C)cc1)[C@H](COC(C)=O)Cc1cncn1C [Example 12, O-Acetyl Pilocarpic Acid 4-Methylbenzyl Ester]",yield of pilocarpic acid 4-methylbenzyl ester formed in plasma,[5]; [10],quantitative amounts
same,half-life,[5]; [11],0.4 h
same,"kOH (catalytic rate constant, specific base-catalyzed hydrolysis)",[6],0.21 M⁻¹ s⁻¹
same,half-life,[6]; [12],511 days
same,half-life,[6]; [13],62.5 days
same,logD,[2]; [14],3.16
same,logD,"[2]; octanol/phosphate buffer, pH 7.4, octanol / 0.05 M phosphate buffer pH 7.40 (Table 2), read-out: log P",3.16
same,logD,[2]; [15],3.16
same,duration of miotic activity of the di-esters,[4],approximately 4.5 hours
"CC[C@H](C(=O)OCc1ccc(Cl)cc1)[C@H](CO)Cc1cncn1C [Example 4, Pilocarpic Acid 4-Chlorobenzyl Ester]",half-life,"[1]; buffer, pH 7.4",0.5 h
same,logD,[2]; [8],2.54
same,duration of miotic effect compared with pilocarpine,[4]; [9],most significantly and dramatically longer
same,overall miotic effect compared with pilocarpine,[4]; [9],significantly greater in their overall effect
"CC[C@H](C(=O)OCc1ccc(C)cc1)[C@H](CO)Cc1cncn1C [Example 5, Pilocarpic Acid 4-Methylbenzyl Ester]",extent of cyclization to pilocarpine in plasma,[5]; [10],cyclized quantitatively to pilocarpine
same,half-life,"[5]; 75% human plasma (pH 7.4) at 37° C., after formation from the O-acyl esters",1.38 h
same,half-life,"[1]; buffer, pH 7.4",1.28 h
same,half-life,[1]; plasma-free buffer,1.28 h
same,logD,[2]; [8],2.31
same,shelf-life (time for 10% decomposition) at 4° C.,"[7]; aqueous solution pH 4.0, 4° C.",3.8 years
same,shelf-life (time for 10% decomposition) at 20° C.,"[7]; aqueous solution pH 4.0, 20° C.",about 1.5 years
same,duration of miotic effect compared with pilocarpine,[4]; [9],most significantly and dramatically longer
same,overall miotic effect compared with pilocarpine,[4]; [9],significantly greater in their overall effect
"CC[C@H](C(=O)OCc1ccccc1)[C@H](COC(=O)Cc1ccccc1)Cc1cncn1C [Example 19, O-Phenylacetyl Pilocarpic Acid Benzyl Ester]",half-life,[5]; [16],0.0667 h
same,"kOH (catalytic rate constant, specific base-catalyzed hydrolysis)",[6],0.362 M⁻¹ s⁻¹
same,logD,[2]; [14],3.85
same,time for which miotic effect is apparent,[4]; [17],up to 4.5 hours
"CC[C@H](C(=O)OCc1ccc(Cl)cc1)[C@H](COC(=O)c1ccccc1)Cc1cncn1C [Example 15, O-Benzoyl Pilocarpic Acid 4-Chlorobenzyl Ester]",half-life,[5]; [16],0.283 h
same,"kOH (catalytic rate constant, specific base-catalyzed hydrolysis)",[6],0.0567 M⁻¹ s⁻¹
same,logD,[2]; [14],4.75
same,time for which miotic effect is apparent,"[4]; 25 μl of 0.125% (pilocarpine nitrate equivalent), FIG. 6",up to 4.5 hours
"CC[C@H](C(=O)OCc1ccccc1)[C@H](COC(=O)c1cccnc1)Cc1cncn1C [Example 20, O-Nicotinoyl Pilocarpic Acid Benzyl Ester]",half-life,[5]; [16],0.1 h
same,"kOH (catalytic rate constant, specific base-catalyzed hydrolysis)",[6],0.74 M⁻¹ s⁻¹
same,logD,[2]; [14],2.9
same,time for which miotic effect is apparent,[4]; [17],up to 4.5 hours
"CC[C@H](C(=O)OCc1ccc(C)cc1)[C@H](COC(=O)c1ccccc1)Cc1cncn1C [Example 11, O-Benzoyl Pilocarpic Acid 4-Methylbenzyl Ester]",yield of pilocarpic acid 4-methylbenzyl ester formed in plasma,[5]; [10],quantitative amounts
same,"sum of the concentrations of O-benzoyl di-ester, intermediate ester and pilocarpine at any time","[5]; 75% human plasma, FIG. 2",100±3%
same,half-life,[5]; [11],0.267 h
same,"kOH (catalytic rate constant, specific base-catalyzed hydrolysis)",[6],0.0667 M⁻¹ s⁻¹
same,half-life,[6]; [12],1640 days
same,half-life,[6]; [13],200 days
same,logD,[2]; [14],4.7
same,logD,[2]; [15],4.7
same,duration of miotic activity,"[4]; 25 μl, 0.5% pilocarpine nitrate equivalent, FIG. 4",4.5 h
same,bioavailability relative to pilocarpine,"[4]; FIG. 4, 0.5% pilocarpine nitrate equivalent",approximately 4 fold
same,duration of miotic activity of the di-esters,[4],approximately 4.5 hours
"CCCCOC(=O)[C@@H](CC)[C@H](CO)Cc1cncn1C [Example 2, Pilocarpic Acid Butyl Ester]",half-life,"[1]; buffer, pH 7.4",13.7 h
same,logD,[2]; [8],1.58
"CC[C@@H]1C(=O)OC[C@@H]1Cc1cncn1C [Pilocarpine, reference compound]",water solubility of pilocarpine,[3]; free base form and various salts,extremely water-soluble
same,shelf life in aqueous solutions,"[7]; pilocarpine, pH 6.4 and 20° C.",less than 1 year
"CC[C@H](C(=O)OCc1ccccc1)[C@H](COC(=O)c1cccc(Cl)c1)Cc1cncn1C [Example 17, O-3-Chlorobenzoyl Pilocarpic Acid Benzyl Ester]",half-life,[5]; [16],0.417 h
same,"kOH (catalytic rate constant, specific base-catalyzed hydrolysis)",[6],0.243 M⁻¹ s⁻¹
same,logD,[2]; [14],4.93
same,time for which miotic effect is apparent,[4]; [17],up to 4.5 hours
"CC[C@H](C(=O)OCc1ccccc1C)[C@H](CO)Cc1cncn1C [Example 6, Pilocarpic Acid 2-Methylbenzyl Ester]",logD,[2]; [8],2.27
"CCCC(=O)OCC(Cc1cncn1C)C(CC)C(=O)OCc1ccc(C)cc1 (centres unmarked) [Example 18, O-Butyryl Pilocarpic Acid 4-Methylbenzyl Ester]",half-life,[5]; [16],0.25 h
same,"kOH (catalytic rate constant, specific base-catalyzed hydrolysis)",[6],0.0583 M⁻¹ s⁻¹
same,logD,[2]; [14],4.09
same,time for which miotic effect is apparent,[4]; [17],up to 4.5 hours
"CC[C@H](C(=O)OCCc1ccccc1)[C@H](COC(=O)c1ccccc1)Cc1cncn1C [Example 16, O-Benzoyl Pilocarpic Acid 2-Phenylethyl Ester]",half-life,[5]; [16],0.25 h
same,"kOH (catalytic rate constant, specific base-catalyzed hydrolysis)",[6],0.0633 M⁻¹ s⁻¹
same,logD,[2]; [14],4.6
"CC[C@H](C(=O)OCc1ccccc1)[C@H](COC(=O)c1ccccc1)Cc1cncn1C [Example 14, O-Benzoyl Pilocarpic Acid Benzyl Ester]",half-life,[5]; [16],0.2 h
same,"kOH (catalytic rate constant, specific base-catalyzed hydrolysis)",[6],0.0633 M⁻¹ s⁻¹
same,logD,[2]; [14],4.22
same,predicted shelf-life at 20° C.,"[7]; aqueous solution pH 3-5, 20° C., temperature-accelerated kinetic stability studies",> 20 years
same,predicted shelf-life at 25° C.,"[7]; aqueous solution pH 3-5, 25° C., temperature-accelerated kinetic stability studies",> 8 years
same,pH region of maximum stability,[7]; aqueous solutions,3-5 pH
same,time for which miotic effect is apparent,[4]; [17],up to 4.5 hours
"CC[C@H](C(=O)OCCc1ccccc1)[C@H](CO)Cc1cncn1C [Example 9, Pilocarpic Acid 2-Phenylethyl Ester]",log P,[2]; octanol/phosphate buffer,2.16
same,logD,[2]; [8],2.16

# From patent US4742073A (priority 1982, dated 1988)
